These results are taken from publication PMC5218480 (PLoS ONE, 2017).

The test deals with MV-4-11 cells. In words: Gene expression microarray analysis (Affymetrix PrimeView) and GSEA. It is filed as cell-based, human. Further details: RFU PODN (11730768_x_at) / Fold change /veh PODN (11730768_x_at) / RFU LINC00158 (11744669_a_at) / Fold change /veh LINC00158 (11744669_a_at) / RFU DUSP10 (11751237_a_at) / Fold change /veh DUSP10 (11751237_a_at) / RFU ID3 (11757404_x_at) / Fold change /veh ID3 (11757404_x_at) / RFU PLEKHG5 (11737974_s_at) / Fold change /veh PLEKHG5 (11737974_s_at) / RFU LRRC4B (11730491_at) / Fold change /veh LRRC4B (11730491_at) / RFU GIMAP4 (11747438_a_at) / Fold change /veh GIMAP4 (11747438_a_at) / RFU KRT8 (11758183_x_at) / Fold change /veh KRT8 (11758183_x_at) / RFU CNN1 (11734310_a_at) / Fold change /veh CNN1 (11734310_a_at) / RFU VPS37D (11726825_at) / Fold change /veh VPS37D (11726825_at) / RFU C10orf10 (11716522_x_at) / Fold change /veh C10orf10 (11716522_x_at) / RFU KIR2DL2 /// KIR2DL4 /// KIR2DL5A /// KIR2DL5B /// KIR2DS1 /// KIR2DS2 /// KIR2DS3 /// KIR2DS4 /// KIR3DL3 /// KIR3DL3 /// KIR3DS1 (11738374_at) / Fold change /veh KIR2DL2 /// KIR2DL4 /// KIR2DL5A /// KIR2DL5B /// KIR2DS1 /// KIR2DS2 /// KIR2DS3 /// KIR2DS4 /// KIR3DL3 /// KIR3DL3 /// KIR3DS1 (11738374_at) / RFU C1QL1 (11718748_at) / Fold change /veh C1QL1 (11718748_at) / RFU TMPRSS4 (11747572_a_at) / Fold change /veh TMPRSS4 (11747572_a_at) / RFU HAMP (11756126_x_at) / Fold change /veh HAMP (11756126_x_at) / RFU RNFT2 (11725882_a_at) / Fold change /veh RNFT2 (11725882_a_at) / RFU NR4A2 (11747474_a_at) / Fold change /veh NR4A2 (11747474_a_at) / RFU ABCC12 (11746883_a_at) / Fold change /veh ABCC12 (11746883_a_at) / RFU TMEM136 (11760407_x_at) / Fold change /veh TMEM136 (11760407_x_at) / RFU CLDN22 /// WWC2 (11732394_at) / Fold change /veh CLDN22 /// WWC2 (11732394_at) / RFU HLA-DPB1 (11760878_x_at) / Fold change /veh HLA-DPB1 (11760878_x_at) / RFU SPINT1 (11716480_a_at) / Fold change /veh SPINT1 (11716480_a_at) / RFU GAP43 (11754022_s_at) / Fold change /veh GAP43 (11754022_s_at) / RFU A4GNT (11735810_at) / Fold change /veh A4GNT (11735810_at) / RFU PRB3 (11715151_x_at) / Fold change /veh PRB3 (11715151_x_at) / RFU TUBB4B (11761932_at) / Fold change /veh TUBB4B (11761932_at) / RFU CAPN14 (11732068_a_at) / Fold change /veh CAPN14 (11732068_a_at) / RFU TMCC2 (11721928_a_at) / Fold change /veh TMCC2 (11721928_a_at) / RFU IRGQ (11745062_a_at) / Fold change /veh IRGQ (11745062_a_at) / RFU FAM174B (11720279_a_at) / Fold change /veh FAM174B (11720279_a_at) / RFU TMPRSS4 (11748680_a_at) / Fold change /veh TMPRSS4 (11748680_a_at) / RFU FAM212B (11763350_a_at) / Fold change /veh FAM212B (11763350_a_at) / RFU PLEKHG5 (11743358_a_at) / Fold change /veh PLEKHG5 (11743358_a_at) / RFU ZSCAN30 (11745921_a_at) / Fold change /veh ZSCAN30 (11745921_a_at) / RFU CMKLR1 (11741424_a_at) / Fold change /veh CMKLR1 (11741424_a_at) / RFU LOC101060620 /// MAPK8IP1 (11723275_at) / Fold change /veh LOC101060620 /// MAPK8IP1 (11723275_at) / RFU SPTSSB (11747773_x_at) / Fold change /veh SPTSSB (11747773_x_at) / RFU PRSS12 (11739890_at) / Fold change /veh PRSS12 (11739890_at) / RFU BIN1 (11741810_x_at) / Fold change /veh BIN1 (11741810_x_at) / RFU WNT11 (11732464_a_at) / Fold change /veh WNT11 (11732464_a_at) / RFU C10orf10 (11716521_a_at) / Fold change /veh C10orf10 (11716521_a_at) / RFU C5orf56 (11738089_at) / Fold change /veh C5orf56 (11738089_at) / RFU CYB561 (11721691_x_at) / Fold change /veh CYB561 (11721691_x_at) / RFU ANKRD19P (11752326_a_at) / Fold change /veh ANKRD19P (11752326_a_at) / RFU OR2T12 /// OR2T33 /// OR2T8 (11738714_s_at) / Fold change /veh OR2T12 /// OR2T33 /// OR2T8 (11738714_s_at) / RFU VCAN (11748164_a_at) / Fold change /veh VCAN (11748164_a_at) / RFU JSRP1 (11732532_at) / Fold change /veh JSRP1 (11732532_at) / RFU KRTAP10-11 (11738290_x_at) / Fold change /veh KRTAP10-11 (11738290_x_at) / RFU MYO3A (11730013_a_at) / Fold change /veh MYO3A (11730013_a_at) / RFU EBF3 (11725865_a_at) / Fold change /veh EBF3 (11725865_a_at) / RFU CAMK2N1 (11719241_x_at) / Fold change /veh CAMK2N1 (11719241_x_at) / RFU C5orf56 (11738088_a_at) / Fold change /veh C5orf56 (11738088_a_at) / RFU OLFML3 (11715873_a_at) / Fold change /veh OLFML3 (11715873_a_at) / RFU LOC100653217 /// NTM (11731650_a_at) / Fold change /veh LOC100653217 /// NTM (11731650_a_at) / RFU MAPK11 (11762145_a_at) / Fold change /veh MAPK11 (11762145_a_at) / RFU FIZ1 (11724087_x_at) / Fold change /veh FIZ1 (11724087_x_at) / RFU OASL (11726364_x_at) / Fold change /veh OASL (11726364_x_at) / RFU SOX15 (11748057_x_at) / Fold change /veh SOX15 (11748057_x_at) / RFU CD79A (11719716_a_at) / Fold change /veh CD79A (11719716_a_at) / RFU HIST1H1D (11736915_at) / Fold change /veh HIST1H1D (11736915_at) / RFU CASKIN2 (11723855_a_at) / Fold change /veh CASKIN2 (11723855_a_at) / RFU LOC730098 (11760151_x_at) / Fold change /veh LOC730098 (11760151_x_at) / RFU OR4N2 (11742367_at) / Fold change /veh OR4N2 (11742367_at) / RFU PRRT2 (11749266_a_at) / Fold change /veh PRRT2 (11749266_a_at) / RFU SNX32 (11753110_a_at) / Fold change /veh SNX32 (11753110_a_at) / RFU CDHR5 (11726645_a_at) / Fold change /veh CDHR5 (11726645_a_at) / RFU RCAN1 (11760418_a_at) / Fold change /veh RCAN1 (11760418_a_at) / RFU FAM167A (11723789_a_at) / Fold change /veh FAM167A (11723789_a_at) / RFU FAM26E (11764081_at) / Fold change /veh FAM26E (11764081_at) / RFU ISYNA1 (11749810_s_at) / Fold change /veh ISYNA1 (11749810_s_at) / RFU ACY1 (11761880_at) / Fold change /veh ACY1 (11761880_at) / RFU 11764098_at / Fold change /veh 11764098_at / RFU SAMD14 (11745864_x_at) / Fold change /veh SAMD14 (11745864_x_at) / RFU NPB (11741838_a_at) / Fold change /veh NPB (11741838_a_at) / RFU TMPRSS6 (11731388_a_at) / Fold change /veh TMPRSS6 (11731388_a_at) / RFU KRTAP10-2 (11738614_at) / Fold change /veh KRTAP10-2 (11738614_at) / RFU ARHGAP8 /// PRR5-ARHGAP8 (11727945_x_at) / Fold change /veh ARHGAP8 /// PRR5-ARHGAP8 (11727945_x_at) / RFU KRTAP5-7 /// NADSYN1 (11734609_at) / Fold change /veh KRTAP5-7 /// NADSYN1 (11734609_at) / RFU RASL12 (11751679_a_at) / Fold change /veh RASL12 (11751679_a_at) / RFU CDKN2B (11736163_a_at) / Fold change /veh CDKN2B (11736163_a_at) / RFU PRF1 (11729649_at) / Fold change /veh PRF1 (11729649_at) / RFU, ZNF638 /// ZNF638-IT1 / Fold change vs veh, ZNF638 /// ZNF638-IT1 / RFU, PANK3 / Fold change vs veh, PANK3 / RFU, SH3YL1 / Fold change vs veh, SH3YL1 / RFU, ZEB2 / Fold change vs veh, ZEB2 / RFU, NRIP1 / Fold change vs veh, NRIP1 / RFU, PTTG1IP / Fold change vs veh, PTTG1IP / RFU, CAPN2 / Fold change vs veh, CAPN2 / RFU, MED14 / Fold change vs veh, MED14 / RFU, SNORA58 / Fold change vs veh, SNORA58 / RFU, C1orf63 / Fold change vs veh, C1orf63 / RFU, LRRFIP1 / Fold change vs veh, LRRFIP1 / RFU, NDUFAF7 / Fold change vs veh, NDUFAF7 / RFU, SLC12A2 / Fold change vs veh, SLC12A2 / RFU, IBTK / Fold change vs veh, IBTK / RFU, ESF1 / Fold change vs veh, ESF1 / Fold change vs veh, TMEM50B / RFU, TAOK1 / Fold change vs veh, TAOK1 / RFU, ACBD3 / Fold change vs veh, ACBD3 / RFU, TMA16 / Fold change vs veh, TMA16 / RFU, RWDD3 / Fold change vs veh, RWDD3 / RFU, BCAT1 / Fold change vs veh, BCAT1 / RFU, EDEM3 / Fold change vs veh, EDEM3 / RFU, TMEM33 / Fold change vs veh, TMEM33 / RFU, WDR75 / Fold change vs veh, WDR75 / RFU, AHCTF1 / Fold change vs veh, AHCTF1 / RFU, TFRC / Fold change vs veh, TFRC / RFU, ZDHHC17 / Fold change vs veh, ZDHHC17 / RFU, NOM1 / Fold change vs veh, NOM1 / RFU, ARL8B / Fold change vs veh, ARL8B / RFU, ZBTB11 / Fold change vs veh, ZBTB11 / RFU, TAMM41 / Fold change vs veh, TAMM41 / RFU, KIAA1704 /// LOC100996395 / Fold change vs veh, KIAA1704 /// LOC100996395 / RFU, ING1 / Fold change vs veh, ING1 / RFU, TRMT61B / Fold change vs veh, TRMT61B / RFU, FUBP3 / Fold change vs veh, FUBP3 / RFU, TP53 / Fold change vs veh, TP53 / RFU, TNKS2 / Fold change vs veh, TNKS2 / RFU, ZFP14 / Fold change vs veh, ZFP14 / RFU, ACTR2 / Fold change vs veh, ACTR2 / RFU, PPP3R1 / Fold change vs veh, PPP3R1 / RFU, PIK3R1 / Fold change vs veh, PIK3R1 / RFU, HNRNPA1 / Fold change vs veh, HNRNPA1 / RFU, RNF170 / Fold change vs veh, RNF170 / RFU, ZNF28 / Fold change vs veh, ZNF28 / RFU, RNGTT / Fold change vs veh, RNGTT / RFU, OGT / Fold change vs veh, OGT / RFU, BRD1 / Fold change vs veh, BRD1 / RFU, MARS / Fold change vs veh, MARS / RFU, ZNF655 / Fold change vs veh, ZNF655 / RFU, FAHD1 / Fold change vs veh, FAHD1 / RFU, BDP1 / Fold change vs veh, BDP1 / RFU, LRRCC1 / Fold change vs veh, LRRCC1 / RFU, ARID1A / Fold change vs veh, ARID1A / RFU, ZNF146 / Fold change vs veh, ZNF146 / RFU, ZNF330 / Fold change vs veh, ZNF330 / RFU, GPN3 / Fold change vs veh, GPN3 / RFU, C9orf123 / Fold change vs veh, C9orf123 / RFU, N4BP2L2 / Fold change vs veh, N4BP2L2 / RFU, ARFIP1 / Fold change vs veh, ARFIP1 / RFU, FAM179B / Fold change vs veh, FAM179B / RFU, BCL10 / Fold change vs veh, BCL10 / RFU, UHRF1BP1L / Fold change vs veh, UHRF1BP1L / RFU, BET1 / Fold change vs veh, BET1 / RFU, CNOT2 / Fold change vs veh, CNOT2 / RFU, ZNF268 / Fold change vs veh, ZNF268 / Fold change vs veh, ZNF507 / RFU, DGCR2 / Fold change vs veh, DGCR2 / RFU, WDSUB1 / Fold change vs veh, WDSUB1 / Fold change vs veh, HSP90B1 /// MIR3652 / RFU, ADSS / Fold change vs veh, ADSS / RFU, GK / Fold change vs veh, GK / RFU, ZNF148 / Fold change vs veh, ZNF148 / RFU, TAF9 / Fold change vs veh, TAF9 / RFU, SLC1A5 / Fold change vs veh, SLC1A5 / RFU, SLMO2 / Fold change vs veh, SLMO2 / RFU, ABCC4 / Fold change vs veh, ABCC4 / RFU, LOC101060439 /// RAP1B / Fold change vs veh, LOC101060439 /// RAP1B / RFU, RFX7 / Fold change vs veh, RFX7 / RFU, GTPBP10 / Fold change vs veh, GTPBP10 / RFU, CNEP1R1 / Fold change vs veh, CNEP1R1 / RFU, BIVM-ERCC5 /// ERCC5 / Fold change vs veh, BIVM-ERCC5 /// ERCC5 / RFU, ILF3 / Fold change vs veh, ILF3 / RFU 11762660_at / Fold change /veh 11762660_at / RFU VCAN (11757783_s_at) / Fold change /veh VCAN (11757783_s_at) / RFU DDX43 (11728927_at) / Fold change /veh DDX43 (11728927_at) / RFU KRT8 (11758188_x_at) / Fold change /veh KRT8 (11758188_x_at) / RFU NKD1 (11759106_at) / Fold change /veh NKD1 (11759106_at) / RFU SRD5A1 (11742802_a_at) / Fold change /veh SRD5A1 (11742802_a_at) / RFU TPSAB1 /// TPSB2 (11721975_s_at) / Fold change /veh TPSAB1 /// TPSB2 (11721975_s_at) / RFU GSTM3 (11746129_a_at) / Fold change /veh GSTM3 (11746129_a_at) / RFU IL23R (11737362_x_at) / Fold change /veh IL23R (11737362_x_at) / RFU TMEM51 (11727254_a_at) / Fold change /veh TMEM51 (11727254_a_at) / RFU PIWIL2 (11732686_x_at) / Fold change /veh PIWIL2 (11732686_x_at) / RFU ORM1 (11744905_x_at) / Fold change /veh ORM1 (11744905_x_at) / RFU CCDC152 (11743942_at) / Fold change /veh CCDC152 (11743942_at) / RFU ECM1 (11717891_a_at) / Fold change /veh ECM1 (11717891_a_at) / RFU IL23R (11748794_a_at) / Fold change /veh IL23R (11748794_a_at) / RFU TNFAIP8L3 (11732012_x_at) / Fold change /veh TNFAIP8L3 (11732012_x_at) / RFU MBOAT4 (11741988_at) / Fold change /veh MBOAT4 (11741988_at) / RFU 11764193_at / Fold change /veh 11764193_at / RFU TMEM53 (11763286_at) / Fold change /veh TMEM53 (11763286_at) / RFU MAGEB2 (11727129_at) / Fold change /veh MAGEB2 (11727129_at) / RFU TMEM200A (11744735_a_at) / Fold change /veh TMEM200A (11744735_a_at) / RFU CCDC152 (11751479_a_at) / Fold change /veh CCDC152 (11751479_a_at) / RFU FAM211A (11726209_a_at) / Fold change /veh FAM211A (11726209_a_at) / RFU RGS16 (11746705_a_at) / Fold change /veh RGS16 (11746705_a_at) / RFU VCAN (11755009_s_at) / Fold change /veh VCAN (11755009_s_at) / RFU RHOB (11743442_s_at) / Fold change /veh RHOB (11743442_s_at) / RFU RGS16 (11720943_a_at) / Fold change /veh RGS16 (11720943_a_at) / RFU RGS16 (11720944_at) / Fold change /veh RGS16 (11720944_at) / RFU, VPS4B / Fold change vs veh, VPS4B / RFU, CREB1 / Fold change vs veh, CREB1 / RFU, DNAJC13 / Fold change vs veh, DNAJC13 / RFU, GNAQ / Fold change vs veh, GNAQ / RFU, CDK5R1 / Fold change vs veh, CDK5R1 / RFU, ZRANB3 / Fold change vs veh, ZRANB3 / RFU, CUL4A / Fold change vs veh, CUL4A / RFU, CCNY / Fold change vs veh, CCNY / RFU, UFL1 / Fold change vs veh, UFL1 / RFU, COG3 / Fold change vs veh, COG3 / RFU, DIAPH2 / Fold change vs veh, DIAPH2 / RFU, SKA2 / Fold change vs veh, SKA2 / RFU, AFF3 / Fold change vs veh, AFF3 / RFU, LMF1 / Fold change vs veh, LMF1 / RFU, IPO11 / Fold change vs veh, IPO11 / RFU, DFFB / Fold change vs veh, DFFB / RFU, FOXP1 / Fold change vs veh, FOXP1 / RFU, CARD8 / Fold change vs veh, CARD8 / RFU, STRN3 / Fold change vs veh, STRN3 / RFU, ADK / Fold change vs veh, ADK / RFU, RASSF2 / Fold change vs veh, RASSF2 / RFU, WIPF1 / Fold change vs veh, WIPF1 / RFU, LARP1B / Fold change vs veh, LARP1B / RFU, RASA1 / Fold change vs veh, RASA1 / RFU, RB1 / Fold change vs veh, RB1 / RFU, PPFIA1 / Fold change vs veh, PPFIA1 / RFU, MAT2A / Fold change vs veh, MAT2A / RFU, CCT5 / Fold change vs veh, CCT5 / RFU, WDR92 / Fold change vs veh, WDR92 / RFU, CUX1 / Fold change vs veh, CUX1 / RFU, TTC7A / Fold change vs veh, TTC7A / RFU, TMEM135 / Fold change vs veh, TMEM135 / RFU, DEPTOR / Fold change vs veh, DEPTOR / RFU, CPM / Fold change vs veh, CPM / RFU, DNAJB6 / Fold change vs veh, DNAJB6 / RFU, CACNA2D3 / Fold change vs veh, CACNA2D3 / RFU, DTX4 / Fold change vs veh, DTX4 / RFU, TFCP2 / Fold change vs veh, TFCP2 / RFU, GMCL1 /// GMCL1P1 / Fold change vs veh, GMCL1 /// GMCL1P1 / RFU, AEBP2 / Fold change vs veh, AEBP2 / RFU, SNHG1 /// SNORD22 /// SNORD25 /// SNORD26 /// SNORD27 /// SNORD28 /// SNORD29 /// SNORD31 / Fold change vs veh, SNHG1 /// SNORD22 /// SNORD25 /// SNORD26 /// SNORD27 /// SNORD28 /// SNORD29 /// SNORD31 / Fold change (Aza/veh), C12orf56 (ProbeSet 11735607_a_at) / Fold change (ACY-1035/veh), C12orf56 (ProbeSet 11735607_a_at) / Fold change (Aza/veh), FGFR1OP (ProbeSet 11751329_s_at) / Fold change (ACY-1035/veh), FGFR1OP (ProbeSet 11751329_s_at) / Fold change (Aza/veh), VPS36 (ProbeSet 11739960_a_at) / Fold change (ACY-1035/veh), VPS36 (ProbeSet 11739960_a_at) / RFU SYPL1 (11715823_x_at) / Fold change /veh SYPL1 (11715823_x_at) / RFU IGFBP7 (11715501_s_at) / Fold change /veh IGFBP7 (11715501_s_at) / RFU REEP3 (11722064_at) / Fold change /veh REEP3 (11722064_at) / RFU IGLL1 (11728026_x_at) / Fold change /veh IGLL1 (11728026_x_at): dose or concentration left out as unconfirmed. To be noted: MV-4-11 cells, 48 hours.

Consider `Nc1ncn([C@@H]2O[C@H](CO)[C@@H](O)[C@H]2O)c(=O)n1` [azacitidine], for which the “Fold change /veh LINC00158 (11744669_a_at)” value was 1.04.
